In series [1] the test system is HL-60-R8 cells. Put plainly: DNA synthesis in HL-60-R8 cells. To be noted: read-out: IC50, inhibition of DNA synthesis in HL-60-R8 cells. It counts as cell-based, human.
Series [2] relates to HL-60-S cells. Put plainly: DNA synthesis in HL-60-S cells. It is filed as cell-based, human. The note with it: for IC50: read-out: IC50, inhibition of DNA synthesis in HL-60-S cells.
Series [3] relates to HL-60-R8 cells. Kind of series: HL-60-R8 (MDR) cell proliferation assay. It is filed as cell-based, human. The note with it: read-out: IC50, inhibition of HL-60-R8 cell proliferation. The text has this:
(§1) The MDR HL-60-RV and HL-60-R8 cells were developed in Melvin S. Center's laboratory (Kansas State University) and similarly maintained in RPMI 1640 medium in the absence of drugs (Marsh W, et al, Cancer Res 46: 4053-4057, 1986; McGrath T et al, and Center M S: Biochem Biophys Res Commun 145: 1171-1176, 1987; Marsh W and Center M S: Cancer Res 47: 5080-5086, 1987; McGrath T, et al, Biochem Pharmacol 38: 3611-3619, 1989; Marquardt D, et al, Cancer Res 50: 1426-1430, 1990; Marquardt D and Center M S: J Natl Cancer Inst 83: 1089-1109, 1991; Krishnamachary N and Center M S; Cancer Res 53: 3658-3661, 1993). Every 4 weeks, these HL-60-RV and HL-60-R8 sublines were exposed to 41 nM DAU for 48 h to stabilize their MDR phenotype. This concentration of DAU, which is not cytotoxic to MDR HL-60 sublines, was removed from the culture medium at least 48 h before experimentation. […] RFs were determined by dividing the IC50 of the MDR cells by that of the sensitive WT parent cell line.

Series [4] relates to HL-60-RV cells. Put plainly: cells. It is filed as cell-based, human. The note with it: for IC50: read-out: IC50, decrease of HL-60-RV cell viability.
Excerpt: as §1

Series [5] deals with HL-60-RV cells. Put plainly: DNA synthesis in HL-60-RV cells. It is filed as cell-based, human. The note with it: for IC50: read-out: IC50, inhibition of DNA synthesis in HL-60-RV cells.
For series [6], the system named is L1210 cells. Kind of series: RNA synthesis (3H-uridine incorporation) in L1210 cells. It is filed as cell-based, murine. The protocol: FIG. 16. Comparison of the concentration-dependent inhibitions of RNA synthesis by the TT analog TT2 (●) and DAU (∘) in L1210 cells in vitro. […] RNA synthesis in vehicle-treated control cells was 47,117±3,204 cpm (100±7%; striped area). The blank value (1,746±155 cpm) for cells incubated and pulse-labeled at 2° C. with 2 μCi of ^3H-uridine has been substracted from the results.
Except when otherwise specified, the cells were incubated at 37° C. for 90 min in the presence or absence of drugs and then pulse-labeled for an additional 30 min with 1 μCi of [methyl-^3H]thymidine (50 Ci/mmol; Amersham Corp., Arlington Heights, Ill.) to estimate the rate of DNA synthesis. […] After drying the filters, the radioactivity bound to the acid-precipitable material was determined by liquid scintillation counting (LSC) in 10 ml of Bio-Safe NA (Researeh Products International Corp., Mount Prospect, Ill.).

Series [7] relates to Plasmodium falciparum 3D7. Kind of series: Antimalarial activity, inhibition of Plasmodium falciparum 3D7. The note with it: malaria strain 3D7. It counts as cell-based.
In series [8] the test system is HL-60-RV cells. Put plainly: HL-60-RV (MDR) cell proliferation assay. It counts as cell-based, human. To be noted: for IC50: read-out: IC50, inhibition of HL-60-RV cell proliferation.
Excerpt: as §1

Series [9] has as its system HL-60-RV cells. Put plainly: DNA cleavage in HL-60-RV cells. It counts as cell-based, human. To be noted: 24 h. As to the method: FIG. 23. Comparison of the concentration-dependent inductions of DNA cleavage by DAU (open symbols in A) and TT2 (closed symbols in B) at 24 h in HL-60-S (circles), HL-60-RV (squares) and HL-60-R8 (triangles) cells containing ^3H-prelabeled DNA in vitro. Results are expressed as [cpm in supernatant/cpm in supernatant+pellet]×100 at 24 h. For untreated controls (14.7±1.7% DNA fragmentation, striped areas), the supernatant (DNA fragments) is 12,815±1,358 cpm and the pellet (intact DNA) is 74,406±9,078 cpm.
as §1, with “phenotype.” for “phenotype. This concentration of DAU, which is not cytotoxic to MDR HL-60 sublines, was removed from the culture medium at least 48 h before experimentation.”, “line. […]” for “line.”

[10] abbreviates: HL-60-RV and HL-60-R8 vs HL-60-S, day 2.
[11] abbreviates: HL-60-RV and HL-60-R8 vs HL-60-S, day 4.
[12] abbreviates: HL-60-RV and HL-60-R8 vs HL-60-S.

Each structure is given as a SMILES string. Where “and” joins values, the source holds several entries; their conditions need not be identical. Equal entries are not always repeated. Where two headings read alike, the source gives them in different places.

`COC1=CC(=O)C2=C(C1=O)C1C3=C(C(=O)C=CC3=O)C2c2ccccc21` (centres unmarked) [TT2, 2-Methoxy-9,10-dihydro-9,10-[1′,2′]benzenoanthracene-1,4,5,8-tetraone]: the IC50 in series [1] came out at 2.1 µM; in [2] it was 1.8 µM; in series [3] (day 2) it was 0.35 µM; in series [3] (day 4), 0.29 µM; in series [4] (day 2), 1.1 µM; in series [4] (day 4) it was 0.34 µM. For the same compound, the IC50 in [5] was 2.1 µM; in series [6] (3 h drug + 1 h pulse-labeling, read-out: IC50, inhibition of RNA synthesis in L1210 cells), 6 µM and ~6 µM; in series [7], 8 µM; in series [8] (day 2), 0.5 µM; in [8] (day 4) it was 0.26 µM. Also, in series [2] (HL-60-S), the “times TT2 inhibits DNA synthesis less effectively than DAU” value is 9 times. Besides, the “RFs, cell viability (IC50 of MDR cells / IC50 of WT HL-60-S)” value in series [4] (setting [10]) was 0.9-1.2; in [4] (setting [11]), 1.5. Also, in series [5] (setting [12]), the “RFs, DNA synthesis (IC50 of MDR cells / IC50 of WT HL-60-S)” value was found to be 1.2. Besides, the “RFs, tumor cell growth, viability and DNA synthesis together” value in [8] (setting [12]) is 0.9-1.5. In addition, the entries for the “RFs, cell proliferation (IC50 of MDR cells / IC50 of WT HL-60-S)” value in [8] (setting [10]) and in series [8] (setting [11]) were 0.9-1.3 and 0.9-1.0, respectively. For the same compound, in series [9], the “reduction of the peak of maximal DNA cleavage relative to HL-60-S cells” value turned out to be 39%.
In turn, `COC1=C(Br)C(=O)C2=C(C1=O)C1C3=C(C(=O)C=C(N(C)C)C3=O)C2c2ccccc21` (centres unmarked) [TT16, 2-Bromo-3-methoxy-6-(dimethylamino)-9,10-dihydro-9,10-[1′,2′]benzenoanthracene-1,4,5,8-tetraone] had an IC50 in series [7] of 5.6 µM.
With `COc1cccc2c1C(=O)c1c(O)c3c(c(O)c1C2=O)C[C@@](O)(C(C)=O)C[C@@H]3O[C@H]1C[C@H](N)[C@H](O)[C@H](C)O1` [DAU, daunomycin, reference compound], the IC50 came to 1.7 µM in series [1] (Homo sapiens); 0.21 µM in [2] (Homo sapiens); 0.32 µM in series [3] (Homo sapiens, 48 h); 0.225 µM in series [3] (Homo sapiens, 96 h); 0.45 µM in [4] (Homo sapiens, 96 h); 2.5 µM in [5] (Homo sapiens). In addition, the IC50 was 0.5 µM in series [8] (Homo sapiens, 48 h) and 0.275 µM in [8] (Homo sapiens, 96 h). Moreover, the “times less potent as cytotoxic agent in MDR than in WT HL-60 cells” value in series [4] (setting [12]) is reported as “about 28 times”. Further, the “RFs, cell viability (IC50 of MDR cells / IC50 of WT HL-60-S)” value in series [4] (setting [10]) is 23.8-31.3; in series [4] (setting [11]), 25.3-30.0. In addition, the “RFs, DNA synthesis (IC50 of MDR cells / IC50 of WT HL-60-S)” value in series [5] (setting [12]) is reported as 8.1-11.9. Moreover, the “times MDR sublines are less sensitive, DNA synthesis” value in series [5] (setting [12]) came out at 10 times. The “times DAU inhibits RNA synthesis more effectively than TT2” value in series [6] (L1210) is “about 7.5 times”. For the same compound, the “times less effective as cytostatic agent in MDR than in WT HL-60 cells” value in series [8] (setting [12]) is on record as “about 30 times”. The “RFs, cell proliferation (IC50 of MDR cells / IC50 of WT HL-60-S)” value in series [8] (setting [10]) is 22.9-35.7; in series [8] (setting [11]), 25.0-30.6. Also, in [9], the “reduction of the peak of maximal DNA cleavage relative to HL-60-S cells” value turned out to be 79%.

The values are drawn from patent US6828450B2, “Triptycene analogs” (Kansas State University Research Foundation, priority 2000, dated 2004).
